Assays:
Test in all cases: relative viability (nuclei count vs DMSO), 5 days (fraction); higher = more cells survive
[1] = compound: Cn1cnc2c(F)c(Nc3ccc(Br)cc3Cl)c(C(=O)NOCCO)cc21 [Selumetinib] + O=C(c1cc(Cc2n[nH]c(=O)c3ccccc23)ccc1F)N1CCN(C(=O)C2CC2)CC1 [Olaparib] (partner 8 µM)
Outline: (§1)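 After 5 days of treatment, lung cancer cells in 1536-well plates were fixed and stained in a single step (final 0.05% Triton X-100, 1% formaldehyde, 1 ug/ml Hoechst) and their nuclei counted on 4× images. Treatment had been applied by pin tool the day after seeding as one drug alone or as a fixed anchor-drug dose with five library-drug doses (not always all listed) in √10 steps. Relative viability is the nuclei count of treated wells divided by that of vehicle wells, and values are medians of duplicate plates.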

[2] = compound: Cn1cnc2c(F)c(Nc3ccc(Br)cc3Cl)c(C(=O)NOCCO)cc21 [Selumetinib] + CCNC(=O)c1noc(-c2cc(C(C)C)c(O)cc2O)c1-c1ccc(CN2CCOCC2)cc1 [Luminespib] (partner 0.01 µM)
Outline: as §1

[3] = compound: CC1(C)CCC(CN2CCN(c3ccc(C(=O)NS(=O)(=O)c4ccc(NCC5CCOCC5)c([N+](=O)[O-])c4)c(Oc4cnc5[nH]ccc5c4)c3)CC2)=C(c2ccc(Cl)cc2)C1 [Venetoclax] + O=C(CCCCCCC(=O)Nc1ccccc1)NO [Vorinostat] (partner 1 µM)
Outline: as §1

[4] = compound: Cn1cnc2c(F)c(Nc3ccc(Br)cc3Cl)c(C(=O)NOCCO)cc21 [Selumetinib] + Cc1cc(Nc2cc(N3CCN(C)CC3)nc(Sc3ccc(NC(=O)C4CC4)cc3)n2)n[nH]1 [Tozasertib] (partner 0.1 µM)
Outline: as §1

NCI-H2228
relative viability ([1]; first compound 0.02 µM): 0.754
relative viability ([1]; first compound 0.06325 µM): 0.69
relative viability ([1]; first compound 0.2 µM): 0.685
relative viability ([1]; first compound 0.6325 µM): 0.608
relative viability ([2]; first compound 0.02 µM): 0.154
relative viability ([2]; first compound 0.06325 µM): 0.14
relative viability ([2]; first compound 0.2 µM): 0.125
relative viability ([2]; first compound 0.6325 µM): 0.193
relative viability ([3]; first compound 0.01 µM): 0.915
relative viability ([3]; first compound 0.03162 µM): 0.623
relative viability ([3]; first compound 0.1 µM): 0.799
relative viability ([3]; first compound 0.3162 µM): 0.461
relative viability ([3]; first compound 1 µM): 0.436
relative viability ([4]; first compound 0.02 µM): 0.247
relative viability ([4]; first compound 0.06325 µM): 0.255
relative viability ([4]; first compound 0.2 µM): 0.211
relative viability ([4]; first compound 0.6325 µM): 0.204

NCI-H1650
relative viability ([1]; first compound 0.02 µM): 0.669
relative viability ([1]; first compound 0.06325 µM): 0.654
relative viability ([1]; first compound 0.2 µM): 0.712
relative viability ([1]; first compound 0.6325 µM): 0.646
relative viability ([2]; first compound 0.02 µM): 0.194
relative viability ([2]; first compound 0.06325 µM): 0.2
relative viability ([2]; first compound 0.2 µM): 0.198
relative viability ([2]; first compound 0.6325 µM): 0.202
relative viability ([3]; first compound 0.01 µM): 0.618
relative viability ([3]; first compound 0.03162 µM): 0.606
relative viability ([3]; first compound 0.1 µM): 0.567
relative viability ([3]; first compound 0.3162 µM): 0.553
relative viability ([3]; first compound 1 µM): 0.527
relative viability ([4]; first compound 0.02 µM): 0.332
relative viability ([4]; first compound 0.06325 µM): 0.394
relative viability ([4]; first compound 0.2 µM): 0.312
relative viability ([4]; first compound 0.6325 µM): 0.308

NCI-H2342
relative viability ([1]; first compound 0.02 µM): 0.403
relative viability ([1]; first compound 0.06325 µM): 0.4
relative viability ([1]; first compound 0.2 µM): 0.43
relative viability ([1]; first compound 0.6325 µM): 0.415
relative viability ([2]; first compound 0.02 µM): 0.655
relative viability ([2]; first compound 0.06325 µM): 0.64
relative viability ([2]; first compound 0.2 µM): 0.677
relative viability ([2]; first compound 0.6325 µM): 0.69
relative viability ([3]; first compound 0.01 µM): 0.667
relative viability ([3]; first compound 0.03162 µM): 0.823
relative viability ([3]; first compound 0.1 µM): 0.739
relative viability ([3]; first compound 0.3162 µM): 0.683
relative viability ([3]; first compound 1 µM): 0.802
relative viability ([4]; first compound 0.02 µM): 0.461
relative viability ([4]; first compound 0.06325 µM): 0.546
relative viability ([4]; first compound 0.2 µM): 0.473
relative viability ([4]; first compound 0.6325 µM): 0.576

NCI-H1975
relative viability ([1]; first compound 0.02 µM): 0.799
relative viability ([1]; first compound 0.06325 µM): 0.88
relative viability ([1]; first compound 0.2 µM): 0.658
relative viability ([1]; first compound 0.6325 µM): 0.582
relative viability ([2]; first compound 0.02 µM): 0.143
relative viability ([2]; first compound 0.06325 µM): 0.209
relative viability ([2]; first compound 0.2 µM): 0.175
relative viability ([2]; first compound 0.6325 µM): 0.183
relative viability ([3]; first compound 0.01 µM): 0.692
relative viability ([3]; first compound 0.03162 µM): 0.678
relative viability ([3]; first compound 0.1 µM): 0.743
relative viability ([3]; first compound 0.3162 µM): 0.688
relative viability ([3]; first compound 1 µM): 0.72
relative viability ([4]; first compound 0.02 µM): 0.753
relative viability ([4]; first compound 0.06325 µM): 0.703
relative viability ([4]; first compound 0.2 µM): 0.684
relative viability ([4]; first compound 0.6325 µM): 0.591

ChaGo-K-1
relative viability ([1]; first compound 0.02 µM): 0.43
relative viability ([1]; first compound 0.06325 µM): 0.414
relative viability ([1]; first compound 0.2 µM): 0.398
relative viability ([1]; first compound 0.6325 µM): 0.39
relative viability ([2]; first compound 0.02 µM): 0.531
relative viability ([2]; first compound 0.06325 µM): 0.48
relative viability ([2]; first compound 0.2 µM): 0.731
relative viability ([2]; first compound 0.6325 µM): 0.568
relative viability ([3]; first compound 0.01 µM): 0.879
relative viability ([3]; first compound 0.03162 µM): 0.759
relative viability ([3]; first compound 0.1 µM): 0.546
relative viability ([3]; first compound 0.3162 µM): 0.694
relative viability ([3]; first compound 1 µM): 0.737
relative viability ([4]; first compound 0.02 µM): 0.212
relative viability ([4]; first compound 0.06325 µM): 0.237
relative viability ([4]; first compound 0.2 µM): 0.222
relative viability ([4]; first compound 0.6325 µM): 0.204

NCI-H727
relative viability ([1]; first compound 0.02 µM): 0.665
relative viability ([1]; first compound 0.06325 µM): 0.558
relative viability ([1]; first compound 0.2 µM): 0.383
relative viability ([1]; first compound 0.6325 µM): 0.431
relative viability ([2]; first compound 0.02 µM): 0.257
relative viability ([2]; first compound 0.06325 µM): 0.241
relative viability ([2]; first compound 0.2 µM): 0.206
relative viability ([2]; first compound 0.6325 µM): 0.267
relative viability ([3]; first compound 0.01 µM): 1.04
relative viability ([3]; first compound 0.03162 µM): 1.4
relative viability ([3]; first compound 0.1 µM): 1.08
relative viability ([3]; first compound 0.3162 µM): 1.12
relative viability ([3]; first compound 1 µM): 1.11
relative viability ([4]; first compound 0.02 µM): 0.403
relative viability ([4]; first compound 0.06325 µM): 0.357
relative viability ([4]; first compound 0.2 µM): 0.338
relative viability ([4]; first compound 0.6325 µM): 0.294

HCC-78
relative viability ([1]; first compound 0.02 µM): 0.904
relative viability ([1]; first compound 0.06325 µM): 0.738
relative viability ([1]; first compound 0.2 µM): 0.723
relative viability ([1]; first compound 0.6325 µM): 0.789
relative viability ([3]; first compound 0.01 µM): 0.448
relative viability ([3]; first compound 0.03162 µM): 0.446
relative viability ([3]; first compound 0.1 µM): 0.373
relative viability ([3]; first compound 0.3162 µM): 0.438
relative viability ([3]; first compound 1 µM): 0.424
relative viability ([4]; first compound 0.02 µM): 0.703
relative viability ([4]; first compound 0.06325 µM): 0.44
relative viability ([4]; first compound 0.2 µM): 0.436
relative viability ([4]; first compound 0.6325 µM): 0.408

A549
relative viability ([1]; first compound 0.02 µM): 0.284
relative viability ([1]; first compound 0.06325 µM): 0.295
relative viability ([1]; first compound 0.2 µM): 0.325
relative viability ([1]; first compound 0.6325 µM): 0.265

NCI-H1703
relative viability ([1]; first compound 0.02 µM): 0.521
relative viability ([1]; first compound 0.06325 µM): 0.411
relative viability ([1]; first compound 0.2 µM): 0.39
relative viability ([1]; first compound 0.6325 µM): 0.605

NCI-H1563
relative viability ([2]; first compound 0.02 µM): 0.507
relative viability ([2]; first compound 0.06325 µM): 0.499
relative viability ([2]; first compound 0.2 µM): 0.527
relative viability ([2]; first compound 0.6325 µM): 0.52

IA-LM
relative viability ([1]; first compound 0.02 µM): 1.09
relative viability ([1]; first compound 0.06325 µM): 0.531
relative viability ([1]; first compound 0.2 µM): 0.587
relative viability ([1]; first compound 0.6325 µM): 0.482
relative viability ([3]; first compound 0.01 µM): 0.673
relative viability ([3]; first compound 0.03162 µM): 1.01
relative viability ([3]; first compound 0.1 µM): 0.8
relative viability ([3]; first compound 0.3162 µM): 0.958
relative viability ([3]; first compound 1 µM): 1

NCI-H1648
relative viability ([1]; first compound 0.06325 µM): 0.914
relative viability ([1]; first compound 0.2 µM): 0.742
relative viability ([1]; first compound 0.6325 µM): 0.493
relative viability ([3]; first compound 0.03162 µM): 0.397
relative viability ([3]; first compound 0.1 µM): 0.494
relative viability ([3]; first compound 0.3162 µM): 0.451
relative viability ([3]; first compound 1 µM): 0.477
relative viability ([4]; first compound 0.02 µM): 0.54
relative viability ([4]; first compound 0.06325 µM): 0.488
relative viability ([4]; first compound 0.2 µM): 0.487
relative viability ([4]; first compound 0.6325 µM): 0.456

Reference: the supplement of paper PMC10307832
